Patent US6693216B2, “Calcium double salts” (Nutrinova Nutrition Specialties & Food Ingredients GmbH, priority 2000, dated 2004)
Like-named read-outs stand apart in the source and are kept apart here.

Key:
[1] = sealed
Text: Salts prepared as in example 1 were dried, stored under the specified conditions without the addition of other substances and checked at regular intervals visually for discoloration: […]

Acetic acid bacteria = settings: Part I, 1 g/l in apple juice pH 4.5, 25° C.
Yeasts = settings: Part I, 1 g/l in apple juice pH 4.5, 25° C.
Clostridia = settings: Part I, 1 g/l in apple juice pH 4.5, 25° C.
Gram-positive bacteria = settings: Part I, 1 g/l in apple juice pH 4.5, 25° C.
Thermophilic bacilli = settings: Part I, 1 g/l in apple juice pH 4.5, 25° C.
Bacilli = settings: Part I, 1 g/l in apple juice pH 4.5, 25° C.
Molds I = settings: Part I, 1 g/l in apple juice pH 4.5, 25° C.
Lactic acid bacteria = settings: Part I, 1 g/l in apple juice pH 4.5, 25° C.
Gram-negative bacteria = settings: Part I, 1 g/l in apple juice pH 4.5, 25° C.

For CCC(=O)[O-].O=C([O-])c1ccccc1.[Ca+2], the “Time after yellow-brown discoloration of a 1% strength aqueous solution” value (“Time … of a 1% strength aqueous solution” below) ([1]; dark at 7° C.) was 12 months, the “Time after yellow-brown discoloration of the powder” value (from here on “Time … of the powder”) ([1]; dark at 7° C.) was 12 months and the “Time … of a 1% strength aqueous solution” value ([1]; dark at 25° C.) was 8 months. The “Time … of the powder” value ([1]; dark at 25° C.) was 7 months, the “Time … of a 1% strength aqueous solution” value ([1]; under sunlight at 7° C.) was 12 months and the “Time … of the powder” value ([1]; under sunlight at 7° C.) was 12 months. The “Time … of a 1% strength aqueous solution” value ([1]; under sunlight at 25° C.) was 7-8 months and the “Time … of the powder” value ([1]; under sunlight at 25° C.) was 8 months.

In the case of C/C=C/C=C/C(=O)[O-].[K+] [Potassium Sorbate], the “Number of surviving microorganisms per g of contaminated sample, Acetic acid bacteria” value (Acetic acid bacteria; 1 day after inoculation (2.3 × 10^4)) is reported as 1.7 × 10^4 CFU/g, the “Number of surviving microorganisms per g of contaminated sample, Acetic acid bacteria” value (Acetic acid bacteria; 3 days after inoculation (2.3 × 10^4)) is reported as 4.3 × 10^5 CFU/g and the “Number of surviving microorganisms per g of contaminated sample, Acetic acid bacteria” value (Acetic acid bacteria; 7 days after inoculation (2.3 × 10^4)) is reported as 1.3 × 10^3 CFU/g. The “Number of surviving microorganisms per g of contaminated sample, Acetic acid bacteria” value (Acetic acid bacteria; 14 days after inoculation (2.3 × 10^4)) was 2.7 × 10^5 CFU/g, the “Number of surviving microorganisms per g of contaminated sample, Yeasts” value (shortened to “Number … per g of contaminated sample, Yeasts”) (Yeasts; 1 day after inoculation (2.5 × 10^4)) was 2.7 × 10^5 CFU/g and the “Number … per g of contaminated sample, Yeasts” value (Yeasts; 3 days after inoculation (2.5 × 10^4)) was 1.1 × 10^4 CFU/g. For the same compound, the “Number … per g of contaminated sample, Yeasts” value (Yeasts; 7 days after inoculation (2.5 × 10^4)) was 6.0 × 10^2 CFU/g, the “Number … per g of contaminated sample, Yeasts” value (Yeasts; 14 days after inoculation (2.5 × 10^4)) was less than 10 CFU/g and the “Number of surviving microorganisms per g of contaminated sample, Clostridia” value (Clostridia; 1 day after inoculation (1.4 × 10^4)) was 1.1 × 10^3 CFU/g. The “Number of surviving microorganisms per g of contaminated sample, Clostridia” value (Clostridia; 3 days after inoculation (1.4 × 10^4)) was 450 CFU/g, the “Number of surviving microorganisms per g of contaminated sample, Clostridia” value (Clostridia; 7 days after inoculation (1.4 × 10^4)) was 160 CFU/g and the “Number of surviving microorganisms per g of contaminated sample, Clostridia” value (Clostridia; 14 days after inoculation (1.4 × 10^4)) was 250 CFU/g. For the same compound, the “Number of surviving microorganisms per g of contaminated sample, Gram-positive bacteria” value (Gram-positive bacteria; 1 day after inoculation (2.6 × 10^4)) was 5.5 × 10^4 CFU/g, the “Number of surviving microorganisms per g of contaminated sample, Gram-positive bacteria” value (Gram-positive bacteria; 3 days after inoculation (2.6 × 10^4)) was 7.0 × 10^3 CFU/g and the “Number of surviving microorganisms per g of contaminated sample, Gram-positive bacteria” value (Gram-positive bacteria; 7 days after inoculation (2.6 × 10^4)) was less than 100 CFU/g. The “Number of surviving microorganisms per g of contaminated sample, Gram-positive bacteria” value (Gram-positive bacteria; 14 days after inoculation (2.6 × 10^4)) was less than 10 CFU/g, the “Number of surviving microorganisms per g of contaminated sample, Thermophilic bacilli” value (Thermophilic bacilli; 1 day after inoculation (1.3 × 10^4)) was 1.6 × 10^3 CFU/g and the “Number of surviving microorganisms per g of contaminated sample, Thermophilic bacilli” value (Thermophilic bacilli; 3 days after inoculation (1.3 × 10^4)) was 900 CFU/g. The “Number of surviving microorganisms per g of contaminated sample, Thermophilic bacilli” value (Thermophilic bacilli; 7 days after inoculation (1.3 × 10^4)) was less than 100 CFU/g, the “Number of surviving microorganisms per g of contaminated sample, Thermophilic bacilli” value (Thermophilic bacilli; 14 days after inoculation (1.3 × 10^4)) was less than 10 CFU/g and the “Number of surviving microorganisms per g of contaminated sample, Bacilli” value (“Number … per g of contaminated sample, Bacilli” below) (Bacilli; 1 day after inoculation (1.5 × 10^4)) was 1.4 × 10^3 CFU/g. The “Number … per g of contaminated sample, Bacilli” value (Bacilli; 3 days after inoculation (1.5 × 10^4)) was “(<100) CFU/g”, the “Number … per g of contaminated sample, Bacilli” value (Bacilli; 7 days after inoculation (1.5 × 10^4)) was 1.4 × 10^3 CFU/g and the “Number … per g of contaminated sample, Bacilli” value (Bacilli; 14 days after inoculation (1.5 × 10^4)) was 1.3 × 10^3 CFU/g. For the same compound, the “Number of surviving microorganisms per g of contaminated sample, Molds I” value (shortened to “Number … per g of contaminated sample, Molds I”) (Molds I; 1 day after inoculation (1.7 × 10^4)) was 5.0 × 10^4 CFU/g, the “Number … per g of contaminated sample, Molds I” value (Molds I; 3 days after inoculation (1.7 × 10^4)) was less than 100 CFU/g and the “Number … per g of contaminated sample, Molds I” value (Molds I; 7 days after inoculation (1.7 × 10^4)) was less than 10 CFU/g. For the same compound, the “Number … per g of contaminated sample, Molds I” value (Molds I; 14 days after inoculation (1.7 × 10^4)) was less than 10 CFU/g, the “Number of surviving microorganisms per g of contaminated sample, Lactic acid bacteria” value (Lactic acid bacteria; 1 day after inoculation (1.9 × 10^4)) was 1.3 × 10^4 CFU/g and the “Number of surviving microorganisms per g of contaminated sample, Lactic acid bacteria” value (Lactic acid bacteria; 3 days after inoculation (1.9 × 10^4)) was 1.2 × 10^6 CFU/g. For the same compound, the “Number of surviving microorganisms per g of contaminated sample, Lactic acid bacteria” value (Lactic acid bacteria; 7 days after inoculation (1.9 × 10^4)) was 1.7 × 10^6 CFU/g, the “Number of surviving microorganisms per g of contaminated sample, Lactic acid bacteria” value (Lactic acid bacteria; 14 days after inoculation (1.9 × 10^4)) was 1.2 × 10^7 CFU/g and the “Number of surviving microorganisms per g of contaminated sample, Gram-negative bacteria” value (Gram-negative bacteria; 1 day after inoculation (2.4 × 10^4)) was 2.9 × 10^4 CFU/g. For the same compound, the “Number of surviving microorganisms per g of contaminated sample, Gram-negative bacteria” value (Gram-negative bacteria; 3 days after inoculation (2.4 × 10^4)) was 1.5 × 10^3 CFU/g, the “Number of surviving microorganisms per g of contaminated sample, Gram-negative bacteria” value (Gram-negative bacteria; 7 days after inoculation (2.4 × 10^4)) was 350 CFU/g and the “Number of surviving microorganisms per g of contaminated sample, Gram-negative bacteria” value (Gram-negative bacteria; 14 days after inoculation (2.4 × 10^4)) was less than 10 CFU/g.
